According to paper PMC8034185, “The rumen eukaryotome is a source of novel antimicrobial peptides with therapeutic potential” (BMC Microbiology, 2021):
Converted amounts (≈) assume the structure as drawn. Bridge positions count the residues as written; N and C are the ends. Square brackets hold non-standard residues; d marks the D form. Peptide text beside a SMILES is read from it. * marks the point of attachment. X1 = CC[C@H](C)CCCCC(=O)*; Dab = NCC[C@H](N)C(=O)O

Assays:
P. aeruginosa PAO1 = test: microbe, parasite or virus in culture; format: cell-based, Pseudomonas aeruginosa; conditions: modified broth microdilution, cation-adjusted Mueller Hinton broth, inoculum 5 × 10^5 CFU/mL, 18 h, quadruplicate; highest concentration tested 512 μg/mL
Procedure: (§1) MICs against a range of clinically important Gram-positive and Gram-negative bacteria strains including methicillin-sensitive Staphylococcus aureus (MSSA) RN4220 epidemic methicillin-resistant S. aureus-15 (EMRSA-15), methicillin-resistant S. aureus USA300 (MRSA USA300), Bacillus cereus, Enterococcus faecalis JH2–2, Escherichia coli K12, Salmonella enterica serovar Typhimurium SL1344, P. aeruginosa PAO1, and hospital isolates of Acinetobacter baummannii were determined in quadruplicate by a modified microdilution broth method [64] with a final bacterial inoculum concentration of 5 × 10^5 CFU/mL utilised as the test organisms. Cation-adjusted Mueller Hinton (MH) broth was innoclated overnight with a single colony of the tested microorganisms, subsequently grown for 16–24 h with shaking at 225 rpm, and further diluted in the same broth to a final concentration of 5 × 10^5 CFU/mL. The bacterial suspension was added to sterile U-bottomed 96-well plates, and the peptides and control antibiotics to be tested were dissolved in sterile distilled water and serially diluted in the wells. The MICs were recorded as the lowest peptide concentration that inhibited growth after incubation for 18 h [65].

A. baumannii S27379 Sen = test: microbe, parasite or virus in culture; format: cell-based, Acinetobacter baumannii; conditions: sensitive hospital isolate; modified broth microdilution, cation-adjusted Mueller Hinton broth, inoculum 5 × 10^5 CFU/mL, 18 h, quadruplicate; highest concentration tested 512 μg/mL
Procedure: as §1

A. baumannii IMI/MER-R = test: microbe, parasite or virus in culture; format: cell-based, Acinetobacter baumannii; conditions: imipenem/meropenem resistant; modified broth microdilution, cation-adjusted Mueller Hinton broth, inoculum 5 × 10^5 CFU/mL, 18 h, quadruplicate; highest concentration tested 512 μg/mL
Procedure: as §1

P. aeruginosa H174 = test: microbe, parasite or virus in culture; format: cell-based, Pseudomonas aeruginosa; conditions: modified broth microdilution, cation-adjusted Mueller Hinton broth, inoculum 5 × 10^5 CFU/mL, 18 h, quadruplicate; highest concentration tested 512 μg/mL
Procedure: as §1

A. baumannii DSMZ 30007 = test: microbe, parasite or virus in culture; format: cell-based, Acinetobacter baumannii; conditions: modified broth microdilution, cation-adjusted Mueller Hinton broth, inoculum 5 × 10^5 CFU/mL, 18 h, quadruplicate; highest concentration tested 512 μg/mL
Procedure: as §1

E. coli K12 = test: microbe, parasite or virus in culture; format: cell-based, Escherichia coli; conditions: modified broth microdilution, cation-adjusted Mueller Hinton broth, inoculum 5 × 10^5 CFU/mL, 18 h, quadruplicate; highest concentration tested 512 μg/mL
Procedure: as §1

Sal. Tyhimurium (SL1344) = test: microbe, parasite or virus in culture; format: cell-based, Salmonella enterica serovar Typhimurium; conditions: modified broth microdilution, cation-adjusted Mueller Hinton broth, inoculum 5 × 10^5 CFU/mL, 18 h, quadruplicate; highest concentration tested 512 μg/mL
Procedure: as §1

[1] = tested on: A. baumannii S15785 OXA-23/0XA-50; test: microbe, parasite or virus in culture; format: cell-based, Acinetobacter baumannii; conditions: modified broth microdilution, cation-adjusted Mueller Hinton broth, inoculum 5 × 10^5 CFU/mL, 18 h, quadruplicate; highest concentration tested 512 μg/mL
Procedure: as §1

S. aureus MSSA (RN4220) = test: microbe, parasite or virus in culture; format: cell-based, Staphylococcus aureus; conditions: Staphylococcus aureus, MSSA, 18 h, read-out: Minimum Inhibitory Concentration, S. aureus MSSA
Procedure: as §1

S. aureus ATCC 33591 = test: microbe, parasite or virus in culture; format: cell-based, Staphylococcus aureus; conditions: Staphylococcus aureus, ATCC33591, 18 h, read-out: Minimum Inhibitory Concentration, S. aureus ATCC 33591
Procedure: as §1

S. aureus USA300 = test: microbe, parasite or virus in culture; format: cell-based, Staphylococcus aureus; conditions: Staphylococcus aureus, USA300, 18 h, read-out: Minimum Inhibitory Concentration, S. aureus USA300
Procedure: as §1

EMRSA-15 cells = test: Time-kill assay; format: cell-based, Staphylococcus aureus; conditions: for Time dependent kill, Mean Log CFU/ml / Time dependent kill, CFU/ml / Time dependent kill, Log CFU/ml: 3x MIC (24 ug/ml); for Time dependent kill, Mean Log CFU/ml: mean of 3 independent replicates
Procedure: Time-dependent kill assays were adapted from standard procedures and were all performed as previously using exponential-phase cultures of EMRA-15 MRSA and USA300 grown in MHB (1 × 10^6 CFU/mL). […] Experiments were performed in triplicates, and CFU/mL was calculated at different time points after overnight incubation of inoculated agar plates (MHA) at 37 °C. Kill curves were plotted with CFU/mL against time (h).

B. cereus = test: microbe, parasite or virus in culture; format: cell-based, Bacillus cereus; conditions: Bacillus cereus, 18 h, read-out: Minimum Inhibitory Concentration, B. cereus
Procedure: as §1

S. aureus EMRSA-15 = test: microbe, parasite or virus in culture; format: cell-based, Staphylococcus aureus; conditions: Staphylococcus aureus, EMRSA15, 18 h, read-out: Minimum Inhibitory Concentration, S. aureus EMRSA-15
Procedure: as §1

Ent. faecalis (JH2–2) = test: microbe, parasite or virus in culture; format: cell-based, Enterococcus faecalis; conditions: Enterococcus faecalis, 18 h, read-out: Minimum Inhibitory Concentration, Ent. faecalis
Procedure: as §1

CC[C@H](C)CCCCC(=O)N[C@@H](CCN)C(=O)N[C@H](C(=O)N[C@@H](CCN)C(=O)N[C@H]1CCNC(=O)[C@H]([C@@H](C)O)NC(=O)[C@H](CCN)NC(=O)[C@H](CCN)NC(=O)[C@H](CC(C)C)NC(=O)[C@@H](Cc2ccccc2)NC(=O)[C@H](CCN)NC1=O)[C@@H](C)O [Polymyxin B] (X1-[Dab]T[Dab][Dab][Dab][dF]L[Dab][Dab]T; lactam 4-C (inferred); N-terminus assumed)
Minimum Inhibitory Concentration, P. aeruginosa PAO1 (P. aeruginosa PAO1): 2 µg/mL | Minimum Inhibitory Concentration, A. baumannii S27379 Sen (A. baumannii S27379 Sen): 1 µg/mL | Minimum Inhibitory Concentration, A. baumannii IMI/MER-R (A. baumannii IMI/MER-R): 1 µg/mL | Minimum Inhibitory Concentration, P. aeruginosa H174 (P. aeruginosa H174): 1 µg/mL | Minimum Inhibitory Concentration, A. baumannii DSMZ 30007 (A. baumannii DSMZ 30007): 1 µg/mL | Minimum Inhibitory Concentration, E. coli K12 (E. coli K12): 0.5 µg/mL | Minimum Inhibitory Concentration, Sal. Tyhimurium (Sal. Tyhimurium (SL1344)): 1 µg/mL | Minimum Inhibitory Concentration, A. baumannii S15785 OXA-23/0XA-50 [1]: 0.5 µg/mL

CN[C@H](CC(C)C)C(=O)N[C@H]1C(=O)N[C@@H](CC(N)=O)C(=O)N[C@H]2C(=O)N[C@H]3C(=O)N[C@H](C(=O)N[C@H](C(=O)O)c4cc(O)cc(O)c4-c4cc3ccc4O)[C@H](O)c3ccc(c(Cl)c3)Oc3cc2cc(c3O[C@@H]2O[C@H](CO)[C@@H](O)[C@H](O)[C@H]2O[C@H]2C[C@](C)(N)[C@H](O)[C@H](C)O2)Oc2ccc(cc2Cl)[C@H]1O [Vancomycin]
MIC (S. aureus MSSA (RN4220)): 2 µg/mL (≈ 1.38 µM) | MIC (S. aureus ATCC 33591): 2 µg/mL (≈ 1.38 µM) | MIC (S. aureus USA300): 2 µg/mL (≈ 1.38 µM) | Time dependent kill, Mean Log CFU/ml (EMRSA-15 cells; 0 min): 6.839 Log CFU/ml | Time dependent kill, Mean Log CFU/ml (EMRSA-15 cells; 10 min): 6.579 Log CFU/ml | Time dependent kill, Mean Log CFU/ml (EMRSA-15 cells; 30 min): 6.503 Log CFU/ml | Time dependent kill, Mean Log CFU/ml (EMRSA-15 cells; 60 min): 6.404 Log CFU/ml | Time dependent kill, Mean Log CFU/ml (EMRSA-15 cells; 120 min): 5.884 Log CFU/ml | Time dependent kill, Mean Log CFU/ml (EMRSA-15 cells; 240 min): 5.168 Log CFU/ml | Time dependent kill, Mean Log CFU/ml (EMRSA-15 cells; 360 min): 4.661 Log CFU/ml | Time dependent kill, Mean Log CFU/ml (EMRSA-15 cells; 1440 min): 0 Log CFU/ml | Time dependent kill, CFU/ml (EMRSA-15 cells; T0 min, Exp1): 7200000 CFU/ml | Time dependent kill, CFU/ml (EMRSA-15 cells; T0 min, Exp2): 7600000 CFU/ml | Time dependent kill, CFU/ml (EMRSA-15 cells; T0 min, Exp3): 6000000 CFU/ml | Time dependent kill, Log CFU/ml (EMRSA-15 cells; T0 min, Exp3): 6.778 Log CFU/ml | Time dependent kill, CFU/ml (EMRSA-15 cells; T10 min, Exp1): 3800000 CFU/ml | Time dependent kill, Log CFU/ml (EMRSA-15 cells; T10 min, Exp1): 6.58 Log CFU/ml | Time dependent kill, CFU/ml (EMRSA-15 cells; T10 min, Exp2): 3600000 CFU/ml | Time dependent kill, Log CFU/ml (EMRSA-15 cells; T10 min, Exp2): 6.5563 Log CFU/ml | Time dependent kill, CFU/ml (EMRSA-15 cells; T10 min, Exp3): 4000000 CFU/ml | Time dependent kill, Log CFU/ml (EMRSA-15 cells; T10 min, Exp3): 6.602 Log CFU/ml | Time dependent kill, CFU/ml (EMRSA-15 cells; T30 min, Exp1): 2800000 CFU/ml | Time dependent kill, Log CFU/ml (EMRSA-15 cells; T30 min, Exp1): 6.447 Log CFU/ml | Time dependent kill, CFU/ml (EMRSA-15 cells; T30 min, Exp2): 4800000 CFU/ml | Time dependent kill, Log CFU/ml (EMRSA-15 cells; T30 min, Exp2): 6.681 Log CFU/ml | Time dependent kill, CFU/ml (EMRSA-15 cells; T30 min, Exp3): 2400000 CFU/ml | Time dependent kill, Log CFU/ml (EMRSA-15 cells; T30 min, Exp3): 6.38 Log CFU/ml | Time dependent kill, CFU/ml (EMRSA-15 cells; T60 min, Exp1): 2000000 CFU/ml | Time dependent kill, Log CFU/ml (EMRSA-15 cells; T60 min, Exp1): 6.301 Log CFU/ml | Time dependent kill, CFU/ml (EMRSA-15 cells; T60 min, Exp2): 3400000 CFU/ml | Time dependent kill, Log CFU/ml (EMRSA-15 cells; T60 min, Exp2): 6.531 Log CFU/ml | Time dependent kill, CFU/ml (EMRSA-15 cells; T60 min, Exp3): 2400000 CFU/ml | Time dependent kill, Log CFU/ml (EMRSA-15 cells; T60 min, Exp3): 6.38 Log CFU/ml | Time dependent kill, CFU/ml (EMRSA-15 cells; T120 min, Exp1): 800000 CFU/ml | Time dependent kill, Log CFU/ml (EMRSA-15 cells; T120 min, Exp1): 5.903 Log CFU/ml | Time dependent kill, CFU/ml (EMRSA-15 cells; T120 min, Exp2): 700000 CFU/ml | Time dependent kill, Log CFU/ml (EMRSA-15 cells; T120 min, Exp2): 5.8451 Log CFU/ml | Time dependent kill, CFU/ml (EMRSA-15 cells; T120 min, Exp3): 800000 CFU/ml | Time dependent kill, Log CFU/ml (EMRSA-15 cells; T120 min, Exp3): 5.903 Log CFU/ml | Time dependent kill, CFU/ml (EMRSA-15 cells; T240 min, Exp1): 80000 CFU/ml | Time dependent kill, Log CFU/ml (EMRSA-15 cells; T240 min, Exp1): 4.9031 Log CFU/ml | Time dependent kill, CFU/ml (EMRSA-15 cells; T240 min, Exp2): 100000 CFU/ml | Time dependent kill, Log CFU/ml (EMRSA-15 cells; T240 min, Exp2): 5 Log CFU/ml | Time dependent kill, CFU/ml (EMRSA-15 cells; T240 min, Exp3): 400000 CFU/ml | Time dependent kill, Log CFU/ml (EMRSA-15 cells; T240 min, Exp3): 5.602 Log CFU/ml | Time dependent kill, CFU/ml (EMRSA-15 cells; T360 min, Exp1): 60000 CFU/ml | Time dependent kill, Log CFU/ml (EMRSA-15 cells; T360 min, Exp1): 4.778 Log CFU/ml | Time dependent kill, CFU/ml (EMRSA-15 cells; T360 min, Exp2): 40000 CFU/ml | Time dependent kill, Log CFU/ml (EMRSA-15 cells; T360 min, Exp2): 4.602 Log CFU/ml | Time dependent kill, CFU/ml (EMRSA-15 cells; T360 min, Exp3): 40000 CFU/ml | Time dependent kill, Log CFU/ml (EMRSA-15 cells; T360 min, Exp3): 4.602 Log CFU/ml | Time dependent kill, CFU/ml (EMRSA-15 cells; T1440 min, Exp1): 0 CFU/ml | Time dependent kill, Log CFU/ml (EMRSA-15 cells; T1440 min, Exp1): 0 Log CFU/ml | Time dependent kill, CFU/ml (EMRSA-15 cells; T1440 min, Exp2): 0 CFU/ml | Time dependent kill, Log CFU/ml (EMRSA-15 cells; T1440 min, Exp2): 0 Log CFU/ml | Time dependent kill, CFU/ml (EMRSA-15 cells; T1440 min, Exp3): 0 CFU/ml | Time dependent kill, Log CFU/ml (EMRSA-15 cells; T1440 min, Exp3): 0 Log CFU/ml | reduction in viable cells, time-kill (EMRSA-15 cells; EMRSA-15, 3× MIC, after 6 h): ≥ 10^3 CFU/mL | MIC (B. cereus): 2 µg/mL (≈ 1.38 µM) | MIC (S. aureus EMRSA-15): 2 µg/mL (≈ 1.38 µM) | MIC (Ent. faecalis (JH2–2)): 2 µg/mL (≈ 1.38 µM)
